Measurements reported in PubChem BioAssay AID248 (DTP/NCI, 2004).
Where “and” joins values, the source holds several entries; their conditions need not be identical. Equal entries are not always repeated. Inconclusive results and toxic doses are left out. No stated cut-off is given here; in the data, active means T/C of 150% or more; inactive means T/C below 125%.

Test system: L1210 leukemia ip in BDF1 mice, survival T/C
Experiment: NCI In Vivo Anticancer Drug Screen. Data for tumor model L1210 Leukemia (intraperitoneal) in B6D2F1 (BDF1) mice
Conditions: endpoint: mean survival time, higher = longer survival
Method in brief: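 Ratio derived from survival: compound-dosed mice over vehicle-dosed mice, all bearing a transplantable tumor.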

[1] = dose: 100.0 mg/kg/injection, schedule: Q04DX002 (ip), vehicle: Klucel (hydroxypropylcellulose) (HPC)
[2] = dose: 200.0 mg/kg/injection, schedule: Q04DX002 (ip), vehicle: Klucel (hydroxypropylcellulose) (HPC)
[3] = dose: 400.0 mg/kg/injection, schedule: Q04DX002 (ip), vehicle: Klucel (hydroxypropylcellulose) (HPC)
[4] = dose: 100.0 mg/kg/injection, schedule: Q04DX003 (ip), vehicle: saline with Tween-80
[5] = dose: 200.0 mg/kg/injection, schedule: Q04DX003 (ip), vehicle: saline with Tween-80
[6] = dose: 50.0 mg/kg/injection, schedule: Q01DX009 (ip), vehicle: saline
[7] = dose: 100.0 mg/kg/injection, schedule: Q01DX009 (ip), vehicle: saline
[8] = dose: 200.0 mg/kg/injection, schedule: Q01DX009 (ip), vehicle: saline
[9] = dose: 100.0 mg/kg/injection, schedule: Q01DX001 (ip), vehicle: saline
[10] = dose: 200.0 mg/kg/injection, schedule: Q01DX001 (ip), vehicle: saline
[11] = dose: 100.0 mg/kg/injection, schedule: Q01DX009 (ip), vehicle: Klucel (hydroxypropylcellulose) (HPC)
[12] = dose: 200.0 mg/kg/injection, schedule: Q01DX009 (ip), vehicle: Klucel (hydroxypropylcellulose) (HPC)
[13] = dose: 400.0 mg/kg/injection, schedule: Q01DX009 (ip), vehicle: Klucel (hydroxypropylcellulose) (HPC)
[14] = dose: 400.0 mg/kg/injection, schedule: Q01DX001 (ip), vehicle: saline
[15] = dose: 100.0 mg/kg/injection, schedule: Q04DX003 (ip), vehicle: Klucel (hydroxypropylcellulose) (HPC)
[16] = dose: 200.0 mg/kg/injection, schedule: Q04DX003 (ip), vehicle: Klucel (hydroxypropylcellulose) (HPC)

Measured: T/C

Nc1cc[c]([Hg][Cl])cc1
inactive: dose: 1.0 mg/kg/injection, schedule: Q01DX009 (ip), vehicle: Klucel (hydroxypropylcellulose) (HPC) 97 % of control | dose: 1.0 mg/kg/injection, schedule: Q04DX003 (ip), vehicle: saline 102 % of control | dose: 3.0 mg/kg/injection, schedule: Q01DX009 (ip), vehicle: Klucel (hydroxypropylcellulose) (HPC) 112 % of control | dose: 3.0 mg/kg/injection, schedule: Q04DX003 (ip), vehicle: saline 96 % of control | dose: 6.0 mg/kg/injection, schedule: Q01DX009 (ip), vehicle: Klucel (hydroxypropylcellulose) (HPC) 88 % of control | dose: 6.0 mg/kg/injection, schedule: Q04DX003 (ip), vehicle: saline 95 % of control

Clc1ccc(CI)cc1
inactive: dose: 25.0 mg/kg/injection, schedule: Q04DX003 (ip), vehicle: alcohol 106 % of control | dose: 50.0 mg/kg/injection, schedule: Q04DX003 (ip), vehicle: alcohol 98 % of control | dose: 100.0 mg/kg/injection, schedule: Q04DX003 (ip), vehicle: alcohol 98 % of control

C=CCCCCCCCCC(=O)N/N=C/c1ccccc1OC
inactive: [1] 110 % of control | [2] 104 % of control | [3] 110 % of control

CC(C)[N+](=O)[O-]
inactive: dose: 62.5 mg/kg/injection, schedule: Q01DX001 (ip), vehicle: Klucel (hydroxypropylcellulose) (HPC) 104 % of control | dose: 125.0 mg/kg/injection, schedule: Q01DX001 (ip), vehicle: Klucel (hydroxypropylcellulose) (HPC) 114 % of control | dose: 250.0 mg/kg/injection, schedule: Q01DX001 (ip), vehicle: Klucel (hydroxypropylcellulose) (HPC) 101 % of control

c1ccc(Cn2ccnc2)cc1
inactive: dose: 3.12 mg/kg/injection, schedule: Q01DX009 (ip), vehicle: water 106 % of control | dose: 6.25 mg/kg/injection, schedule: Q01DX009 (ip), vehicle: water 117 % of control | dose: 12.5 mg/kg/injection, schedule: Q01DX009 (ip), vehicle: water 107 % of control | dose: 25.0 mg/kg/injection, schedule: Q01DX009 (ip), vehicle: water 104 % of control and 108 % of control | dose: 50.0 mg/kg/injection, schedule: Q01DX009 (ip), vehicle: water 96 % of control | dose: 75.0 mg/kg/injection, schedule: Q01DX001 (ip), vehicle: saline 103 % of control

CCc1c(O)c2c(c(O)c1C(C)=O)C(=O)c1c(cc(O)c(C(=O)O)c1C(=O)O)C2=O
inactive: [4] 100 % of control | [5] 100 % of control

CC1(C)OC2OC(COC(=S)Sc3ccc([N+](=O)[O-])cc3[N+](=O)[O-])C3OC(C)(C)OC3C2O1 (centres undefined)
inactive: dose: 6.25 mg/kg/injection, schedule: Q04DX002 (ip), vehicle: saline 95 % of control | dose: 12.5 mg/kg/injection, schedule: Q04DX002 (ip), vehicle: saline 98 % of control | dose: 25.0 mg/kg/injection, schedule: Q04DX002 (ip), vehicle: saline 106 % of control and 91 % of control | dose: 50.0 mg/kg/injection, schedule: Q04DX002 (ip), vehicle: saline 120 % of control | dose: 100.0 mg/kg/injection, schedule: Q04DX002 (ip), vehicle: saline 100 % of control

O=C(NCCc1cnc[nH]1)C(F)(F)F
inactive: [6] 96 % of control | [7] 96 % of control | [8] 100 % of control

CCCCCC(C)(O)CCC (centres undefined)
inactive: dose: 50.0 mg/kg/injection, schedule: Q01DX001 (ip), vehicle: saline 93 % of control | [9] 93 % of control | [10] 93 % of control

N#CCc1ccc2c(c1)Sc1ccccc1O2
inactive: [11] 94 % of control | [12] 100 % of control | [13] 93 % of control

CCCCC(=O)N/N=C\c1cccc(OCc2ccccc2)c1
inactive: [9] 107 % of control | [10] 102 % of control | [14] 109 % of control

NC(N)=N/N=C/c1c[nH]c2ccc(OCc3ccccc3)cc12
inactive: dose: 15.0 mg/kg/injection, schedule: Q01DX Z (ip), vehicle: methylcellulose (MC) 94 % of control | dose: 15.0 mg/kg/injection, schedule: Q01DX Z (oral), vehicle: methylcellulose (MC) 90 % of control | dose: 30.0 mg/kg/injection, schedule: Q01DX Z (ip), vehicle: methylcellulose (MC) 96 % of control | dose: 30.0 mg/kg/injection, schedule: Q01DX Z (oral), vehicle: methylcellulose (MC) 87 % of control

CC(=O)Nc1ccc(NC(=O)NC(C)(C)C)cc1
inactive: [11] 97 % of control | [12] 96 % of control | [13] 96 % of control

C1=C(c2ccccc2)N(C2CCCCCCC2)C(c2ccccc2)=CN1Cc1ccccc1
inactive: [1] 103 % of control | [2] 103 % of control | [3] 100 % of control

COc1ccccc1OC(=O)Nc1cc([N+](=O)[O-])ccc1C
inactive: dose: 100.0 mg/kg/injection, schedule: Q01DX009 (ip), vehicle: saline with Tween-80 89 % of control | dose: 200.0 mg/kg/injection, schedule: Q01DX009 (ip), vehicle: saline with Tween-80 96 % of control | dose: 400.0 mg/kg/injection, schedule: Q01DX009 (ip), vehicle: saline with Tween-80 121 % of control

NC(=O)Cn1cnc2c(N)ncnc21
inactive: [4] 95 % of control | [5] 95 % of control | dose: 400.0 mg/kg/injection, schedule: Q04DX003 (ip), vehicle: saline with Tween-80 101 % of control

CCCCCCc1cc(N=Nc2ccc(S(=O)(=O)Nc3nnc(C)s3)cc2)c(O)cc1O
inactive: dose: 100.0 mg/kg/injection, schedule: Q01DX001 (ip), vehicle: carboxymethylcellulose (CMC) 98 % of control | dose: 200.0 mg/kg/injection, schedule: Q01DX001 (ip), vehicle: carboxymethylcellulose (CMC) 95 % of control

CC(=O)/C=C(\C)NCC(C)N/C(C)=C/C(C)=O (centres undefined)
inactive: [9] 105 % of control | [10] 96 % of control | [14] 99 % of control

O=S(=O)(OCC1CO1)c1ccc(F)cc1 (centres undefined)
inactive: dose: 100.0 mg/kg/injection, schedule: Q01DX007 (ip), vehicle: Klucel (hydroxypropylcellulose) (HPC) 103 % of control | [15] 95 % of control | dose: 200.0 mg/kg/injection, schedule: Q01DX007 (ip), vehicle: Klucel (hydroxypropylcellulose) (HPC) 114 % of control | [16] 104 % of control | dose: 400.0 mg/kg/injection, schedule: Q01DX007 (ip), vehicle: Klucel (hydroxypropylcellulose) (HPC) 103 % of control | dose: 400.0 mg/kg/injection, schedule: Q04DX003 (ip), vehicle: Klucel (hydroxypropylcellulose) (HPC) 98 % of control

N#CCc1nc2ccccc2[nH]1
inactive: dose: 50.0 mg/kg/injection, schedule: Q01DX009 (ip), vehicle: Klucel (hydroxypropylcellulose) (HPC) 97 % of control | dose: 50.0 mg/kg/injection, schedule: Q04DX003 (ip), vehicle: Klucel (hydroxypropylcellulose) (HPC) 101 % of control | dose: 100.0 mg/kg/injection, schedule: Q01DX001 (ip), vehicle: Klucel (hydroxypropylcellulose) (HPC) 102 % of control | [11] 98 % of control | [15] 98 % of control | [12] 88 % of control | [16] 101 % of control

CCN(CC)CC(=O)NC(CCN(C)C)(c1cccc2ccccc12)C(C)C (centres undefined)
inactive: [6] 94 % of control | [7] 112 % of control | dose: 100.0 mg/kg/injection, schedule: Q04DX003 (ip), vehicle: saline 105 % of control | [8] 100 % of control | dose: 200.0 mg/kg/injection, schedule: Q04DX003 (ip), vehicle: saline 105 % of control
